SMILES strings stand for the structures. pIC50: −log10 of the molar value.

For this assay, the target named is T1, human TSHR (Homo sapiens, UniProt P16473).
T1 construct: expressed in transfected cells
T1 sequence (P16473 21-764): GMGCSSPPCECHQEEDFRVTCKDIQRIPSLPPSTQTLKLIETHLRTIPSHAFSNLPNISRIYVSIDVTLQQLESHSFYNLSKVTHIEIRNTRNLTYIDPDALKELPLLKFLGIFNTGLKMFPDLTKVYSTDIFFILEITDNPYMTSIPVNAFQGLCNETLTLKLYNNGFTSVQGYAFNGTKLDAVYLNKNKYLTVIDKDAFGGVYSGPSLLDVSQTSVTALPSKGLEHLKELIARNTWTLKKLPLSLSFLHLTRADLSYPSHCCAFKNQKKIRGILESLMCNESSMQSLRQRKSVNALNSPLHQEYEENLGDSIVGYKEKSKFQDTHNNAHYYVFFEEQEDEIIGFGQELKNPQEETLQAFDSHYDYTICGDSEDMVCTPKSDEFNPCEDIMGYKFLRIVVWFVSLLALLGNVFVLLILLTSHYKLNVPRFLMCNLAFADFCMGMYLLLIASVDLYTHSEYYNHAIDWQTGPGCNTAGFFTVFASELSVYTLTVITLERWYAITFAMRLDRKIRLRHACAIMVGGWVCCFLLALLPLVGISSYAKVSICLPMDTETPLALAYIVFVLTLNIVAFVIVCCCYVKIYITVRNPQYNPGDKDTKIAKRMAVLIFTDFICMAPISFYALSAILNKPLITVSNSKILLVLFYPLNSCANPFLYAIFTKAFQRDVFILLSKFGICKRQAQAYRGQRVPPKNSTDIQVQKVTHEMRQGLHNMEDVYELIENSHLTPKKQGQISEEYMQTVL
Briefly: Antagonist activity using TSH-induced cAMP production in human TSHR-stably expressing CHO cells. The assay is classed as cell-based. The following applies: human TSH 50 ng/mL. Here is the method:
Measurement of Antagonist Activity Using TSH-Induced cAMP Production in Human TSHR-Stably Expressing CHO Cells as an Indicator
The human TSHR gene sequence (reference number NM_000369.2) was inserted into the multicloning site of pcDNA3.1(+). The constructed plasmid vector was introduced into CHO cells using the lipofection method to establish human TSHR-stably expressing CHO cells. The obtained cells were seeded at 5×10^4 cells/well in a 96-well poly-D-lysine-coated plate, and cultured in an F12 culture medium containing 10% FBS, 400 μg/mL of G418, 50 U/mL of penicillin and 50 μg/mL of streptomycin under conditions of 37° C. and 5% CO2 for 1 day. After the culture medium was removed, the cells were washed twice with 100 μL of an assay buffer solution (Hanks' Balanced Salt Solution containing 20 mM HEPES and 1 mM IBMX) per well. 30 μL of a test compound-containing assay buffer solution was added to the well and incubated at room temperature for 15 minutes. Then, 30 μL of an assay buffer solution containing human TSH (final concentration 50 ng/mL, R&D Systems, Inc.) was added, and incubated at 37° C. for 1 hour. The supernatant was removed, a Lysis and Detection Buffer 2 (Cisbio) was added, and the mixture was incubated at room temperature for 1 hour to prepare a cell lysate. According to the instruction manual of a cAMP Gs HiRange kit (Cisbio), the cell lysate, d2-labeled cAMP and anti-cAMP Europium Cryptate labeled antibodies (Cisbio) were reacted in a 384-well white microplate. Then, a fluorescence intensity ratio (measurement wavelength 665 nm/620 nm) was measured using a multi-plate reader (PHERAstar FSX, BMG LABTECH, Japan). The fluorescence intensity ratio of each sample was converted to a cAMP content using a standard curve. The cAMP content was converted as a percentage of the control value to calculate the cAMP production rate. The CAMP production rate was plotted against the test compound concentration using Prism (Graph Pad Software Inc.) to calculate the IC50 value. The IC50 of each test compound is shown in the above tables. In the tables, IC50<0.5 μM: A, 0.5 μM≤IC50<3.0 μM: B, 3.0 μM≤IC50<30 μM: C are shown.
A general note: Cyclic AMP is a second messenger, typically raised through Gs and lowered through Gi signalling.
As usually defined, the pIC50 is the IC50 on a negative log10 scale, so that one unit is a factor of ten. A lower pIC50 goes with a high IC50. Consider `CN1C(=O)C(CC(N)=O)Cc2cccc(Oc3ccccc3)c21` (centres unmarked) [Example 1, 2-(1-methyl-2-oxo-8-phenoxy-1,2,3,4-tetrahydroquinolin-3-yl)acetamide], for which the pIC50 is 4.52 to 5.52.
Then `CN1C(=O)C(NC(N)=O)Cc2cccc(Oc3ccccc3)c21` (centres unmarked) [Example 2, (1-methyl-2-oxo-8-phenoxy-1,2,3,4-tetrahydroquinolin-3-yl)urea], with 5.52 to 6.30; and `CN1C(=O)C(NC(N)=O)Cc2cccc(Oc3ccccc3F)c21` (centres unmarked) [Example 3, (8-(2-fluorophenoxy)-1-methyl-2-oxo-1,2,3,4-tetrahydroquinolin-3-yl)urea], with 5.52 to 6.30; and `CN1C(=O)C(NC(N)=O)Cc2cccc(Oc3cccc(F)c3)c21` (centres unmarked) [Example 4, (8-(3-fluorophenoxy)-1-methyl-2-oxo-1,2,3,4-tetrahydroquinolin-3-yl)urea], with 4.52 to 5.52.
In turn, `CN1C(=O)C(NC(N)=O)Cc2cccc(Oc3cccc(C(F)(F)F)c3)c21` (centres unmarked) [Example 5, (1-methyl-2-oxo-8-(3-(trifluoromethyl)phenoxy)-1,2,3,4-tetrahydroquinolin-3-yl)urea] showed a negative-log IC50 (pIC50) of 5.52 to 6.30.
With `CN1C(=O)C(NC(N)=O)Cc2cccc(Oc3cccc(Cl)c3)c21` (centres unmarked) [Example 6, (8-(3-chlorophenoxy)-1-methyl-2-oxo-1,2,3,4-tetrahydroquinolin-3-yl)urea], the pIC50 is 5.52 to 6.30.
The result for `CN1C(=O)C(NC(N)=O)Cc2ccc(F)c(Oc3ccccc3)c21` (centres unmarked) [Example 7] reads 5.52 to 6.30.
`CN1C(=O)C(NC(N)=O)Cc2ccc(Cl)c(Oc3ccccc3)c21` (centres unmarked) [Example 8]: the pIC50 was 5.52 to 6.30.
Take `CN1C(=O)C(NC(N)=O)Cc2cccc(Oc3ncccc3C(F)(F)F)c21` (centres unmarked) [Example 9, (1-methyl-2-oxo-8-((3-(trifluoromethyl)pyridine-2-yl)oxy)-1,2,3,4-tetrahydroquinolin-3-yl)urea]: the pIC50 is 4.52 to 5.52.
The result for `CN1C(=O)[C@H](NC(N)=O)Cc2cccc(Oc3ccccc3C(F)(F)F)c21` [Example 10, ((3R)-1-methyl-2-oxo-8-(2-(trifluoromethyl)phenoxy)-1,2,3,4-tetrahydroquinolin-3-yl)urea] reads greater than 6.30.
In turn, `COc1ccccc1Oc1cccc2c1N(C)C(=O)[C@H](NC(N)=O)C2` [Example 11, ((3R)-8-(2-methoxyphenoxy)-1-methyl-2-oxo-1,2,3,4-tetrahydroquinolin-3-yl)urea] had a pIC50 of 4.52 to 5.52.
Consider `CN1C(=O)[C@H](NC(N)=O)Cc2cccc(Oc3cccc(C#N)c3)c21` [Example 12, ((3R)-8-(3-cyanophenoxy)-1-methyl-2-oxo-1,2,3,4-tetrahydroquinolin-3-yl)urea], for which the pIC50 is 4.52 to 5.52.
`COc1cccc(Oc2cccc3c2N(C)C(=O)[C@H](NC(N)=O)C3)c1` [Example 13] showed a pIC50 of 5.52 to 6.30.
Compound `CCc1ccccc1Oc1cccc2c1N(C)C(=O)[C@H](NC(N)=O)C2` [Example 14] had a pIC50 of 5.52 to 6.30.
As for `CCc1cccc(Oc2cccc3c2N(C)C(=O)[C@H](NC(N)=O)C3)c1` [Example 15], the pIC50 is 5.52 to 6.30.
Turning to `CN1C(=O)[C@H](NC(N)=O)Cc2cccc(Oc3cc(F)ccc3Cl)c21` [Example 16, ((3R)-8-(2-chloro-5-fluorophenoxy)-1-methyl-2-oxo-1,2,3,4-tetrahydroquinolin-3-yl)urea], the pIC50 was greater than 6.30.
`CC(C)c1ccccc1Oc1cccc2c1N(C)C(=O)[C@H](NC(N)=O)C2` [Example 17, ((3R)-1-methyl-2-oxo-8-(2-(propan-2-yl)phenoxy)-1,2,3,4-tetrahydroquinolin-3-yl)urea] showed a pIC50 of 5.52 to 6.30.
`CN1C(=O)[C@H](NC(N)=O)Cc2cccc(Oc3ccccc3C(F)F)c21` [Example 18, ((3R)-8-(2-(difluoromethyl)phenoxy)-1-methyl-2-oxo-1,2,3,4-tetrahydroquinolin-3-yl)urea] showed a pIC50 greater than 6.30.
As to `CN1C(=O)[C@H](NC(N)=O)Cc2ccc(F)c(Oc3ccccc3Cl)c21` [Example 19, ((3R)-8-(2-chlorophenoxy)-7-fluoro-1-methyl-2-oxo-1,2,3,4-tetrahydroquinolin-3-yl)urea], the pIC50 was greater than 6.30.
In turn, `CN1C(=O)[C@H](NC(N)=O)Cc2cccc(Oc3ccc(F)cc3Cl)c21` [Example 20, ((3R)-8-(2-chloro-4-fluorophenoxy)-1-methyl-2-oxo-1,2,3,4-tetrahydroquinolin-3-yl)urea] showed a pIC50 greater than 6.30.
The compound `CN1C(=O)[C@H](NC(N)=O)Cc2cccc(Oc3cc(F)ccc3C(F)(F)F)c21` [Example 21, ((3R)-8-(5-fluoro-2-(trifluoromethyl)phenoxy)-1-methyl-2-oxo-1,2,3,4-tetrahydroquinolin-3-yl)urea] gave a pIC50 greater than 6.30.
As for `CN1C(=O)[C@H](NC(N)=O)Cc2ccc(Cl)c(Oc3ccccc3Cl)c21` [Example 22, ((3R)-7-chloro-8-(2-chlorophenoxy)-1-methyl-2-oxo-1,2,3,4-tetrahydroquinolin-3-yl)urea], the pIC50 is greater than 6.30.
Turning to `CN1C(=O)[C@H](NC(N)=O)Cc2ccc(Cl)c(Oc3ccccc3F)c21` [Example 23, ((3R)-7-chloro-8-(2-fluorophenoxy)-1-methyl-2-oxo-1,2,3,4-tetrahydroquinolin-3-yl)urea], the negative logarithm of the IC50 (pIC50) is greater than 6.30.
With `CN1C(=O)[C@H](NC(N)=O)Cc2cccc(Oc3cccc(OC(F)F)c3)c21` [Example 24, ((3R)-8-(3-(difluoromethoxy)phenoxy)-1-methyl-2-oxo-1,2,3,4-tetrahydroquinolin-3-yl)urea], the pIC50 is 5.52 to 6.30.
For the compound `COc1cccc(Oc2c(Cl)ccc3c2N(C)C(=O)[C@H](NC(N)=O)C3)c1` [Example 25], the pIC50 is 5.52 to 6.30.
The compound `CN1C(=O)[C@H](NC(N)=O)Cc2ccc(Cl)c(Oc3cccc(F)c3)c21` [Example 26, ((3R)-7-chloro-8-(3-fluorophenoxy)-1-methyl-2-oxo-1,2,3,4-tetrahydroquinolin-3-yl)urea] had a pIC50 greater than 6.30.
In turn, `CN1C(=O)[C@H](NC(N)=O)Cc2ccc(Cl)c(Oc3ccccc3C(F)F)c21` [Example 27, ((3R)-7-chloro-8-(2-(difluoromethyl)phenoxy)-1-methyl-2-oxo-1,2,3,4-tetrahydroquinolin-3-yl)urea] showed a negative logarithm of the IC50 (pIC50) greater than 6.30.
The compound `CN1C(=O)[C@H](NC(N)=O)Cc2cccc(Oc3cc(F)ccc3C(F)F)c21` [Example 28] had a pIC50 greater than 6.30.
As to `CN1C(=O)[C@H](NC(N)=O)Cc2cccc(Oc3ccc(F)cc3C(F)F)c21` [Example 29], the negative-log IC50 (pIC50) was greater than 6.30.
Then `COc1ccc(Cl)c(Oc2cccc3c2N(C)C(=O)[C@H](NC(N)=O)C3)c1` [Example 30, ((3R)-8-(2-chloro-5-methoxyphenoxy)-1-methyl-2-oxo-1,2,3,4-tetrahydroquinolin-3-yl)urea], with greater than 6.30; and `Cc1ccc2c(c1Oc1ccccc1Cl)N(C)C(=O)[C@H](NC(N)=O)C2` [Example 31, ((3R)-8-(2-chlorophenoxy)-1,7-dimethyl-2-oxo-1,2,3,4-tetrahydroquinolin-3-yl)urea], with greater than 6.30; and `CN1C(=O)[C@H](NC(N)=O)Cc2ccc(OCc3ccccc3)c(Oc3ccccc3Cl)c21` [Example 32], with 4.52 to 5.52.
Take `CN1C(=O)[C@H](NC(N)=O)Cc2ccc(O)c(Oc3ccccc3Cl)c21` [Example 33, ((3R)-8-(2-chlorophenoxy)-7-hydroxy-1-methyl-2-oxo-1,2,3,4-tetrahydroquinolin-3-yl)urea]: the pIC50 was 5.52 to 6.30.
In turn, `CCN1C(=O)[C@H](NC(N)=O)Cc2cccc(Oc3ccccc3Cl)c21` [Example 34, ((3R)-8-(2-chlorophenoxy)-1-ethyl-2-oxo-1,2,3,4-tetrahydroquinolin-3-yl)urea] gave a pIC50 greater than 6.30.
The result for `CN1C(=O)[C@H](NC(N)=O)Cc2cccc(Oc3cc(F)c(F)cc3Cl)c21` [Example 35, ((3R)-8-(2-chloro-4,5-difluorophenoxy)-1-methyl-2-oxo-1,2,3,4-tetrahydroquinolin-3-yl)urea] reads greater than 6.30.
The result for `CN1C(=O)[C@H](NC(N)=O)Cc2ccc(F)c(Oc3ccccc3C(F)(F)F)c21` [Example 36] reads 5.52 to 6.30; that for `CN1C(=O)[C@H](NC(N)=O)Cc2ccc(Cl)c(Oc3cc(F)ccc3Cl)c21` [Example 37, ((3R)-7-chloro-8-(2-chloro-5-fluorophenoxy)-1-methyl-2-oxo-1,2,3,4-tetrahydroquinolin-3-yl)urea], greater than 6.30; that for `Cc1ccc2c(c1Oc1ccccc1C(F)F)N(C)C(=O)[C@H](NC(N)=O)C2` [Example 38, ((3R)-8-(2-(difluoromethyl)phenoxy)-1,7-dimethyl-2-oxo-1,2,3,4-tetrahydroquinolin-3-yl)urea], greater than 6.30.

The values are drawn from patent US20250361210A1, “3,4-DIHYDROQUINOLIN-2(1H)-ONE COMPOUND” (Kissei Pharmaceutical Co., Ltd., priority 2022, published 2025).
